# Test results as given in patent publication US12649750B2, “Macrocyclic compounds, compositions, and methods of using thereof” (Sionna Therapeutics Inc., priority 2022, dated 2026).
# Molecular target: T1, NBD1 (Homo sapiens, UniProt P13569)
# T1 construct: Purified recombinant NBD1 was produced using previously described methods; made in house
# Test: Aggregation analysis using differential static light scattering (DSLS), thermal stability of NBD1 (ΔTagg)
# Assay type: binding
# Settings: ΔTagg versus DMSO control, NBD1 0.2 mg/ml
# Outline: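 Read-out is ΔTagg: the aggregation temperature, taken at the inflection of the light-scattering curve, less the average of DMSO control wells. Recombinant NBD1 (0.2 mg/ml, pH7.6 buffer containing 2 mM ATP) with test compound was heated at 1° C. per minute up to 70° C.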
# T1 sequence (P13569 423-646 limits assumed): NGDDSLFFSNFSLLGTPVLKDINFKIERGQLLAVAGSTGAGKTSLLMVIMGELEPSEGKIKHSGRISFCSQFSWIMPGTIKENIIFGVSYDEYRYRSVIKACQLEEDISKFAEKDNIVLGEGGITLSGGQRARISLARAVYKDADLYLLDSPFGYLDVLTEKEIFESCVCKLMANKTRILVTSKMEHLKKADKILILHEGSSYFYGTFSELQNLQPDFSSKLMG
row,SMILES,DSLS 3D (100 μM ΔT)
1,"Cn1nc2nc1-c1cc(ccn1)Cc1c(F)c(F)c3[nH]ccc3c1CCS(=O)(=O)CC(C)(C)CCC[C@]2(C)c1cccc(CC(C)(C)C(=O)O)c1 [Compound 307, 3-[3-[(6R)-21,22-Difluoro-3,6,10,10-tetramethyl-12,12-dioxo-12λ6-thia-3,4,19,28,30-pentazapentacyclo[23.3.1.12,5.015,23.016,20]triaconta-1(29),2(30),4,15,17,20,22,25,27-nonaen-6-yl]phenyl]-2,2-dimethyl-propanoic Acid]",A (an ΔTagg value less than or equal to 5 °C is marked “A”)
2,"Cn1nc2nc1-c1cc(ccn1)Sc1c(F)c(F)c3[nH]ccc3c1CCS(=O)(=O)CC(C)(C)CCC[C@]2(C)c1cccc(CC2(C(=O)O)CC2)c1 [Compound 308, 1-[[3-[(6R)-21,22-difluoro-3,6,10,10-tetramethyl-12,12-dioxo-12λ6,24-dithia-3,4,19,28,30-pentazapentacyclo[23.3.1.12,5.015,23.016,20]triaconta-1(29),2(30),4,15,17,20,22,25,27-nonaen-6-yl]phenyl]methyl]cyclopropanecarboxylic acid]",B (a value above 5 °C and less than or equal to 10 °C is marked “B”)
3,"Cn1nc2nc1-c1cc(ccn1)S(=O)(=O)c1c(F)c(F)c3[nH]ccc3c1CCS(=O)(=O)CC(C)(C)CCC[C@]2(C)c1cccc(CC2(C(=O)O)CC2)c1 [Compound 310, 1-[[3-[(6R)-21,22-difluoro-3,6,10,10-tetramethyl-12,12,24,24-tetraoxo-12λ6,24λ6-dithia-3,4,19,28,30-pentazapentacyclo[23.3.1.12,5.015,23.016,20]triaconta-1(29),2(30),4,15,17,20,22,25,27-nonaen-6-yl]phenyl]methyl]cyclopropanecarboxylic acid]",A (an ΔTagg value less than or equal to 5 °C is marked “A”)
4,"Cn1nc2nc1-c1cc(ccn1)Cc1c(F)cc3[nH]ccc3c1CCS(=O)(=O)CC(C)(C)CCC[C@]2(C)c1cccc(C[C@@H](O)CO)c1 [Compound 311, (2R)-3-[3-[(6R)-22-Fluoro-3,6,10,10-tetramethyl-12,12-dioxo-12λ6-thia-3,4,19,28,30-pentazapentacyclo[23.3.1.12,5.015,23.016,20]triaconta-1(29),2(30),4,15,17,20,22,25,27-nonaen-6-yl]phenyl]propane-1,2-diol]",A (an ΔTagg value less than or equal to 5 °C is marked “A”)
5,"Cn1nc2nc1-c1cc(ccn1)Cc1c(F)cc3[nH]ccc3c1CCS(=O)(=O)CC(C)(C)CCC[C@]2(C)c1cccc(C[C@H](O)CO)c1 [Compound 312, (2S)-3-[3-[(6R)-22-Fluoro-3,6,10,10-tetramethyl-12,12-dioxo-12λ6-thia-3,4,19,28,30-pentazapentacyclo[23.3.1.12,5.015,23.016,20]triaconta-1(29),2(30),4,15,17,20,22,25,27-nonaen-6-yl]phenyl]propane-1,2-diol]",A (an ΔTagg value less than or equal to 5 °C is marked “A”)
6,"Cn1nc2nc1-c1cc(ccn1)Cc1c(F)cc3[nH]ccc3c1CCS(=O)(=O)CC(C)(C)CCC[C@]2(C)c1cccc(CC2(C(=O)O)CC2)c1 [Compound 313, 1-[[3-[(6R)-22-Fluoro-3,6,10,10-tetramethyl-12,12-dioxo-12λ6-thia-3,4,19,28,30-pentazapentacyclo[23.3.1.12,5.015,23.016,20]triaconta-1(29),2(30),4,15,17,20,22,25,27-nonaen-6-yl]phenyl]methyl]cyclopropanecarboxylic acid]",B (a value above 5 °C and less than or equal to 10 °C is marked “B”)
7,"C[C@@H](Cc1cccc(C2(C)CCCC(C)(C)CS(=O)(=O)CCc3c(c(F)cc4[nH]ccc34)S(=O)(=O)c3ccnc(c3)-c3nc2nn3C)n1)C(=O)O (stereo partly drawn) [Compound 315E, (2S)-3-[6-(22-fluoro-3,6,10,10-tetramethyl-12,12,24,24-tetraoxo-12λ6,24λ6-dithia-3,4,19,28,30-pentazapentacyclo[23.3.1.12,5.015,23.016,20]triaconta-1(29),2(30),4,15,17,20,22,25,27-nonaen-6-yl)-2-pyridyl]-2-methyl-propanoic Acid]",A (an ΔTagg value less than or equal to 5 °C is marked “A”)
8,"C[C@H](Cc1cccc([C@@]2(C)CCCC(C)(C)CS(=O)(=O)CCc3c(c(F)c(F)c4[nH]ccc34)S(=O)(=O)c3ccc(F)c(c3)-c3nc2nn3C)c1)C(=O)O [Compound 320, (2R)-2-Methyl-3-[3-[(6R)-21,22,28-trifluoro-3,6,10,10-tetramethyl-12,12,24,24-tetraoxo-12λ6,24λ6-dithia-3,4,19,30-tetrazapentacyclo[23.3.1.12,5.015,23.016,20]triaconta-1(29),2(30),4,15,17,20,22,25,27-nonaen-6-yl]phenyl]propanoic acid]",B (a value above 5 °C and less than or equal to 10 °C is marked “B”)
9,"Cc1c[nH]c2c(F)c(F)c3c(c12)CCS(=O)(=O)CC(C)(C)CCC[C@](C)(c1cccc(C[C@@H](C)C(=O)O)c1)c1nc(n(C)n1)-c1cc(ccc1F)O3 [Compound 321, (2R)-2-Methyl-3-[3-[(6R)-21,22,28-trifluoro-3,6,10,10,17-pentamethyl-12,12-dioxo-24-oxa-12λ6-thia-3,4,19,30-tetrazapentacyclo[23.3.1.12,5.015,23.016,20]triaconta-1(29),2(30),4,15,17,20,22,25,27-nonaen-6-yl]phenyl]propanoic Acid]",A (an ΔTagg value less than or equal to 5 °C is marked “A”)
10,"C[C@H](Cc1cccc([C@@]2(C)CCCC(C)(C)CS(=O)(=O)CCc3c(c(F)c(F)c4[nH]cc(C#N)c34)Oc3ccc(F)c(c3)-c3nc2nn3C)c1)C(=O)O [Compound 322, (2R)-3-[3-[(6R)-17-Cyano-21,22,28-trifluoro-3,6,10,10-tetramethyl-12,12-dioxo-24-oxa-12λ6-thia-3,4,19,30-tetrazapentacyclo[23.3.1.12,5.015,23.016,20]triaconta-1(29),2(30),4,15,17,20,22,25,27-nonaen-6-yl]phenyl]-2-methyl-propanoic Acid]",B (a value above 5 °C and less than or equal to 10 °C is marked “B”)
11,"Cn1nc2nc1-c1cc(ccn1)Oc1c(F)c(F)c3[nH]ccc3c1CCS(=O)(=O)CC(C)(C)CCC[C@]2(C)c1cccc(CC(C)(C)C(=O)O)c1 [Compound 323, 3-[3-[(6R)-21,22-Difluoro-3,6,10,10-tetramethyl-12,12-dioxo-24-oxa-12λ6-thia-3,4,19,28,30-pentazapentacyclo[23.3.1.12,5.015,23.016,20]triaconta-1(29),2(30),4,15,17,20,22,25,27-nonaen-6-yl]phenyl]-2,2-dimethyl-propanoic Acid]",B (a value above 5 °C and less than or equal to 10 °C is marked “B”)
12,"Cn1nc2nc1-c1cc(ccc1F)Oc1c(F)c(F)c3[nH]ccc3c1CCS(=O)(=O)CC(C)(C)CCC[C@]2(C)c1cccc(CC(C)(C)C(=O)O)c1 [Compound 324, 2,2-Dimethyl-3-[3-[(6R)-21,22,28-trifluoro-3,6,10,10-tetramethyl-12,12-dioxo-24-oxa-12λ6-thia-3,4,19,30-tetrazapentacyclo[23.3.1.12,5.015,23.016,20]triaconta-1(29),2(30),4,15,17,20,22,25,27-nonaen-6-yl]phenyl]propanoic Acid]",B (a value above 5 °C and less than or equal to 10 °C is marked “B”)
13,"Cn1nc2nc1-c1cc(ccc1F)Sc1c(F)c(F)c3[nH]cc(CC(=O)O)c3c1CCS(=O)(=O)CC(C)(C)CCC[C@]2(C)c1ccccc1 [Compound 325, 2-[(6R)-21,22,28-Trifluoro-3,6,10,10-tetramethyl-12,12-dioxo-6-phenyl-12λ6,24-dithia-3,4,19,30-tetrazapentacyclo[23.3.1.12,5.015,23.016,20]triaconta-1(29),2(30),4,15,17,20,22,25,27-nonaen-17-yl]acetic Acid]",B (a value above 5 °C and less than or equal to 10 °C is marked “B”)
14,C[C@H](Cc1cccc([C@@]2(C)CCCC(C)(C)CS(=O)(=O)CCc3c(c(F)c(F)c4[nH]cc(Cl)c34)Oc3ccc(F)c(c3)-c3nc2nn3C)c1)C(=O)O [Compound 327],A (an ΔTagg value less than or equal to 5 °C is marked “A”)
15,"C[C@H](Cc1cccc([C@@]2(C)CCCC(C)(C)CS(=O)(=O)CCc3c(c(F)c(F)c4[nH]ccc34)Oc3ccc(F)c(c3)-c3nc2nn3C)c1)C(=O)NS(=O)(=O)C1CC1 [Compound 328, (2R)—N-Cyclopropylsulfonyl-2-methyl-3-[3-[(6R)-21,22,28-trifluoro-3,6,10,10-tetramethyl-12,12-dioxo-24-oxa-12λ6-thia-3,4,19,30-tetrazapentacyclo[23.3.1.12,5.015,23.016,20]triaconta-1(29),2(30),4,15,17,20,22,25,27-nonaen-6-yl]phenyl]propenamide]",B (a value above 5 °C and less than or equal to 10 °C is marked “B”)
16,"C[C@@H](Cc1cccc([C@@]2(C)CCCC(C)(C)CS(=O)(=O)CCc3c(c(F)cc4[nH]ccc34)S(=O)(=O)c3ccc(F)c(c3)-c3nc2nn3C)c1)C(=O)O [Compound 329, (2S)-3-[3-[(6R)-22,28-Difluoro-3,6,10,10-tetramethyl-12,12,24,24-tetraoxo-12λ6,24λ6-dithia-3,4,19,30-tetrazapentacyclo[23.3.1.12,5.015,23.016,20]triaconta-1(29),2(30),4,15,17,20,22,25,27-nonaen-6-yl]phenyl]-2-methyl-propanoic Acid]",B (a value above 5 °C and less than or equal to 10 °C is marked “B”)
17,"C[C@@H](Cc1cccc([C@@]2(C)CCCC(C)(C)CS(=O)(=O)CCc3c(c(F)cc4[nH]ccc34)S(=O)(=O)c3cccc(c3)-c3coc2n3)c1)C(=O)O [Compound 331, (2S)-3-[3-[(6R)-22-Fluoro-6,10,10-trimethyl-12,12,24,24-tetraoxo-4-oxa-12λ6,24λ6-dithia-19,30-diazapentacyclo[23.3.1.12,5.015,23.016,20]triaconta-1(29),2,5(30),15,17,20,22,25,27-nonaen-6-yl]phenyl]-2-methyl-propanoic acid]",A (an ΔTagg value less than or equal to 5 °C is marked “A”)
